Data: article PMC6572996, “Silver(I) Complexes of the Pharmaceutical Agents Metronidazole and 4-Hydroxymethylpyridine: Comparison of Cytotoxic Profile for Potential Clinical Application” (Molecules, 2019)

How the values were obtained:
[1] = system: HepG2 cells; assay: Leakage LDH assay (cellular membrane integrity), HepG2; assay type: cell-based, human; conditions: for Lowest concentration with significant (p ≤ 0.05) disintegration of the cellular membrane (LDH): HepG2, 72 h, vs negative control 0.1% DMSO
Protocol: (§1) Data obtained from the measurement of the optical density in these assays were transformed to percentages in relation to the control group, considered to be 100% for the MTT, NRU, and TPC assays and 0% for the LDH assay (Figure 1).
(§2) The human hepatoma cell line (HepG2) was purchased from the American Type Culture Collection (ATCC HB-8065). These cells were cultured in Minimum Essential Medium Eagle (MEME) (ATCC). The murine fibroblast cell line (Balb/c 3T3 clone A31) (gift from Department of Swine Diseases of the National Veterinary Research Institute in Pulawy) was cultured in Dulbecco’s Modified Eagle’s Medium (DMEM) (ATCC). The media were supplemented with 10% BCS (Balb/c 3T3), 10% FBS (HepG2), 1% L-glutamine, and 1% antibiotic solution. The cells were maintained in 75 cm^2 cell culture flasks (Nunc, Roskilde, Denmark) in a humidified incubator, NuAire (Plymouth, MN, USA) at 37 °C, in an atmosphere of 5% CO2. The medium was refreshed every two or three days and the cells were trypsinized by 0.25% trypsin–0.02% EDTA after reaching 70–80% confluence. Single cell suspensions were prepared and adjusted to a density of 2 × 10^5 cells/mL (HepG2) and 5 × 10^4 cells/mL (Balb/c 3T3). The cell suspension was transferred to 96-well plates (100 µL/well) and incubated for 24 h before the exposure to the study compounds.
(§3) The concentration ranges of compounds were chosen according to their solubility and their plasma level. Each compound was dissolved in DMSO. The final concentration of DMSO was 0.1% in the medium. The same final concentrations of the solvent and the 1% Trition-X 100 solution were used as the negative and positive controls, respectively. […] All compound solutions in the medium were freshly prepared and protected from light. […] The concentration range was selected on the basis of results from previous studies. Each concentration was tested in six replicates with three independent experiments. Cytotoxicity was assessed after 72 h of exposure of the cells to the compounds. The medium was not changed during the incubation time.
(§4) The integrity of the plasma membrane was assessed using the test of lactate dehydrogenase (LDH) release, which was monitored using the commercially available Cytotoxicity Detection Kit (LDH) (Roche Diagnostics, Warsaw, Poland). The medium (100 µL/well) without cells was transferred into the corresponding wells of an optically clear 96-well flat bottom microplate and a 100 µl reaction mixture was added to each well. Then, the plates were incubated for 30 min at room temperature in darkness. After that time, a 50 µL/well 1 M HCl was added to stop the reaction. The absorbance was measured at 492 nm in a microplate reader (LabSystems Multiskan RC, Thermo Fisher Scientific, Waltham, MA, USA) using a blank as a reference.
(§5) The results of the tests were expressed as a mean ± SD. The experiments were performed in three independent repetitions. Statistical analysis was performed using GraphPad Prism 5 (San Diego, CA, USA). One-way analysis of variance (ANOVA) followed by Dunnett’s post-hoc test was applied. The 50% inhibition (cytotoxicity) concentrations (IC50) were derived from the dose–response curve plotted with the concentration of the compound (X-axis) vs. cell viability percent (Y-axis). The IC50 values were calculated by GraphPad Prism 5 software (San Diego, CA, USA). Statistical comparisons among IC50 values were performed by the analysis of variance (ANOVA) followed by the Tukey test. Values of p ≤ 0.05 were considered statistically significant.

[2] = Cytotoxicity over four assays in both cell lines; assay type: cell-based; conditions: mouse (Balb/c 3T3) and human (HepG2), Balb/c 3T3 clone A31 fibroblasts and HepG2 hepatoma cells, mostly greater than 50%, read-out: Viability of the cells at the highest concentrations used
Protocol: as §1
as §2, with “Single cell suspensions were prepared and adjusted to a density of 2 × 10^5 cells/mL (HepG2) and 5 × 10^4 cells/mL (Balb/c 3T3). The cell suspension was transferred to 96-well plates (100 µL/well) and incubated for 24 h before the exposure to the study compounds.” left out
The concentration ranges of compounds were chosen according to their solubility and their plasma level. […] Cytotoxicity was assessed after 72 h of exposure of the cells to the compounds. […]
The results of the tests were expressed as a mean ± SD. […] The IC50 values were calculated by GraphPad Prism 5 software (San Diego, CA, USA). […]

[3] = system: Balb/c 3T3 cells; assay: TPC assay (total protein content), Balb/c 3T3; assay type: cell-based, mouse; conditions: for Lowest concentration with significant (p ≤ 0.05) decrease of total protein content (TPC): Balb/c 3T3, 72 h, vs negative control 0.1% DMSO
Protocol: as §1, §2, §3
(§6) The assay was based upon staining total cellular protein (proliferation). After incubation, the medium containing the compound was removed and 100 µL of Coomassie Brilliant Blue R-250 dye were added to each well. The plate was shaken for 10 min. Then, the stain was removed and the cells were rinsed twice with 100 µL of washing solution (glacial acetic acid/ethanol/water). After that, a 100 µL portion of the desorbing solution (1 M potassium acetate) was added and plates were shaken again for 10 min. The absorbance was measured at 595 nm in a microplate reader (LabSystems Multiskan RC, Thermo Fisher Scientific, Waltham, MA, USA) using a blank as a reference. Cytotoxicity was expressed as a percentage of the negative control (0.1% DMSO).
as §5

[4] = system: Balb/c 3T3 cells; assay: Leakage LDH assay (cellular membrane integrity), Balb/c 3T3; assay type: cell-based, mouse; conditions: for Lowest concentration with significant (p ≤ 0.05) disintegration of the cellular membrane (LDH): Balb/c 3T3, 72 h, vs negative control 0.1% DMSO
Protocol: as §1, §2, §3, §4, §5

[5] = system: murine melanoma (B16) cell line; design: method as in PMID 26828469; conditions: same observation as in this study; cited from earlier work
[6] = system: HepG2 cells; assay: MTT assay (mitochondrial activity), HepG2; assay type: cell-based, human; conditions: for Lowest concentration with significant (p ≤ 0.05) inhibition of mitochondrial activity (MTT): HepG2, 72 h, vs negative control 0.1% DMSO
Protocol: as §1, §2, §3
(§7) The metabolic activity of living cells was assessed by measuring the activity of dehydrogenases. After incubation of the cells with the compounds, a 10 μL portion of the MTT solution (5 mg/ml in PBS) was added to each well of the 96-well plates and incubated. After 3 h, the MTT solution was removed and the intracellular formazan crystals were dissolved in 100 µl DMSO. The plate was shaken for 15 min at room temperature and transferred to a microplate reader (LabSystems Multiskan RC, Thermo Fisher Scientific, Waltham, MA, USA) to measure the absorbance at 570 nm, using blanks as a reference. Cytotoxicity was expressed as a percentage of the negative control (0.1% DMSO).
as §5

[7] = system: 10T1/2 cell line; design: method as in PMID 26828469; conditions: same observation as in this study; cited from earlier work
[8] = system: HepG2 cells; assay: NRU assay (lysosomal activity), HepG2; assay type: cell-based, human; conditions: for Lowest concentration with significant (p ≤ 0.05) inhibition of lysosomal activity (NRU): HepG2, 72 h, vs negative control 0.1% DMSO
Protocol: as §1, §2, §3
(§8) The assay, based on the staining of living cells by neutral red, was performed according to the protocol described by Borenfreund and Puerner. After incubation, the medium containing the compound was removed and the cells were washed with PBS. Then, a 100 µL/well of NR solution (50 µg/mL) was added for 3 h. After that time, the cells were washed with PBS. The dye from viable cells was released by extraction with a mixture of acetic acid, ethanol, and water. After 10 min of shaking, the absorbance of the dissolved NR was measured at 540 nm in a microplate reader (LabSystems Multiskan RC, Thermo Fisher Scientific, Waltham, MA, USA) using a blank as a reference. Cytotoxicity was expressed as a percentage of the negative control (0.1% DMSO).
as §5

[9] = system: Balb/c 3T3 cells; assay: NRU assay (lysosomal activity), Balb/c 3T3; assay type: cell-based, mouse; conditions: for Lowest concentration with significant (p ≤ 0.05) inhibition of lysosomal activity (NRU): Balb/c 3T3, 72 h, vs negative control 0.1% DMSO
Protocol: as §1, §2, §3, §8, §5

[10] = system: Balb/c 3T3 cells; assay: MTT assay (mitochondrial activity), Balb/c 3T3; assay type: cell-based, mouse; conditions: for Lowest concentration with significant (p ≤ 0.05) inhibition of mitochondrial activity (MTT): Balb/c 3T3, 72 h, vs negative control 0.1% DMSO
Protocol: as §1, §2, §3, §7, §5

[11] = system: HepG2 cells; assay: TPC assay (total protein content), HepG2; assay type: cell-based, human; conditions: for Lowest concentration with significant (p ≤ 0.05) decrease of total protein content (TPC): HepG2, 72 h, vs negative control 0.1% DMSO
Protocol: as §1, §2, §3, §6, §5

OCc1ccncc1 [4-hydroxymethylpyridine]
IC50 ([1]; Homo sapiens, HepG2, 72 h exposure, mean (n = 3) ± SEM, read-out: Inhibitory concentration IC50, LDH): > 227 µM
viability at 72 h [2]: > 50%
Lowest concentration with significant (p ≤ 0.05) decrease of total protein content (TPC) [3]: 57 µM
IC50 ([3]; Mus musculus, BALB/c3T3, Balb/c 3T3, 72 h exposure, mean (n = 3) ± SEM, read-out: Inhibitory concentration IC50, TPC): > 227 µM
IC50 ([4]; Mus musculus, BALB/c3T3, Balb/c 3T3, 72 h exposure, mean (n = 3) ± SEM, read-out: Inhibitory concentration IC50, LDH): > 227 µM
Cytotoxicity in B16 cell line [5]: poorly cytotoxic
IC50 ([6]; Homo sapiens, HepG2, 72 h exposure, mean (n = 3) ± SEM, read-out: Inhibitory concentration IC50, MTT): > 227 µM
Cytotoxicity in 10T1/2 cell line [7]: poorly cytotoxic
IC50 ([8]; Homo sapiens, HepG2, 72 h exposure, mean (n = 3) ± SEM, read-out: Inhibitory concentration IC50, NRU): > 227 µM
Lowest concentration with significant (p ≤ 0.05) inhibition of lysosomal activity (NRU) [9]: 7.0 µM
IC50 ([9]; Mus musculus, BALB/c3T3, Balb/c 3T3, 72 h exposure, mean (n = 3) ± SEM, read-out: Inhibitory concentration IC50, NRU): > 227 µM
Lowest concentration with significant (p ≤ 0.05) inhibition of mitochondrial activity (MTT) [10]: 13.6 µM
IC50 ([10]; Mus musculus, BALB/c3T3, Balb/c 3T3, 72 h exposure, mean (n = 3) ± SEM, read-out: Inhibitory concentration IC50, MTT): > 227 µM
IC50 ([11]; Homo sapiens, HepG2, 72 h exposure, mean (n = 3) ± SEM, read-out: Inhibitory concentration IC50, TPC): > 227 µM

O=[N+]([O-])[O-].OCc1ccncc1.OCc1ccncc1.[Ag+] [Silver(I) + 4-hydroxymethylpyridine, [(4-hydroxymethylpyridine)2Ag]NO3]
Lowest concentration with significant (p ≤ 0.05) disintegration of the cellular membrane (LDH) [1]: 3.8 µM
Lowest concentration with significant (p ≤ 0.05) decrease of total protein content (TPC) [3]: 1.9 µM
Lowest concentration with significant (p ≤ 0.05) disintegration of the cellular membrane (LDH) [4]: 0.98 µM
Lowest concentration with significant (p ≤ 0.05) inhibition of mitochondrial activity (MTT) [6]: 3.8 µM
Lowest concentration with significant (p ≤ 0.05) inhibition of lysosomal activity (NRU) [8]: 3.8 µM
Lowest concentration with significant (p ≤ 0.05) inhibition of lysosomal activity (NRU) [9]: 0.98 µM
Lowest concentration with significant (p ≤ 0.05) inhibition of mitochondrial activity (MTT) [10]: 3.8 µM
Lowest concentration with significant (p ≤ 0.05) decrease of total protein content (TPC) [11]: 7.6 µM

Cc1ncc([N+](=O)[O-])n1CCO.Cc1ncc([N+](=O)[O-])n1CCO.O=[N+]([O-])[O-].[Ag+] [Silver(I) + metronidazole, [(Metronidazole)2AgNO3]]
Lowest concentration with significant (p ≤ 0.05) disintegration of the cellular membrane (LDH) [1]: 6.0 µM
Lowest concentration with significant (p ≤ 0.05) decrease of total protein content (TPC) [3]: 3.0 µM
Lowest concentration with significant (p ≤ 0.05) disintegration of the cellular membrane (LDH) [4]: 0.74 µM
Lowest concentration with significant (p ≤ 0.05) inhibition of mitochondrial activity (MTT) [6]: 6.0 µM
Lowest concentration with significant (p ≤ 0.05) inhibition of lysosomal activity (NRU) [8]: 6.0 µM
Lowest concentration with significant (p ≤ 0.05) inhibition of lysosomal activity (NRU) [9]: 3.0 µM
Lowest concentration with significant (p ≤ 0.05) inhibition of mitochondrial activity (MTT) [10]: 0.74 µM
Lowest concentration with significant (p ≤ 0.05) decrease of total protein content (TPC) [11]: 3.0 µM
